Consider four compounds from patent US20250163002A1, “FUSED QUINONOXIME IMIDAZOLE, ONIUM DERIVATIVES THEREOF, PREPARATION AND USE THEREOF” (SHANGHAI JIAO TONG UNIVERSITY, priority 2022, published 2025).

One data set deals with Adenovirus. Briefly: Antiviral activity, plaque test in 293A cells. The data set is classed as cell-based. Conditions: adenovirus in 293A cells; for non-CPE blank plaques observed: observation by day. The method, then: Experimental method: 4.59 mg of the compound 125 were weighed and put to a 15 mL centrifugal tube with the addition of 10 mL of sterile water, and dissolved via vortex oscillation until there was no obvious yellow particle, then subpackaged and stored at −20° C., 200 μL/piece (concentration: 1 mM); 2.79 mg Cidofovir (molecular weight: 279) were weighed and added to the 15 mL centrifugal tube, dissolved with the addition of 10 mL sterile water, then subpackaged and stored at −20° C., 200 μL/piece (concentration: 1 mM).
Plaque test: • 1. 293A cells were paved into a 24-well plate with 150,000 cells per well, and cultured at 37° C. for 12-24 h, then used for test after growing to 90%. • 2. 2% low-melting point agarose gel was melted and put to a 56° C. water bath kettle for further use. • 3. Adenovirus having a titer of 10^9 TCID^50/mL was diluted by 10^5 folds; medium in the 24-well plate was removed, and 200 μL of adenoviral diluent was added per well and incubated in a 37° C. 5% CO2 incubator, shaken once every 30 min, and incubated for 1 h in total. • 4. The drug compound 125 to be tested and Cidofovir were double diluted with 2×MEM (16 μL compound 125 was added to 8 mL of 2×MEM, oscillated and mixed well, then 4 mL mixed solution was taken and added to fresh 4 mL of 2×MEM and mixed well, and 5 dilutions were conducted, being 2 μM, 1 μM, 500 nM, 250 nM, and 125 nM, respectively; the maximum concentration of the compound 125 was 1 μM. Similarly, 400 μL Cidofovir was added to 7.6 mL of 2×MEM, oscillated and mixed well, then 4 mL mixed solution was taken and added to fresh 4 mL of 2×MEM and mixed well, and 5 dilutions were conducted, being 50 μM, 25 μM, 12.5 μM, 6.25 μM, and 3.125 μM, respectively); the diluted solution was put at 37° C. for further use. • 4. The viral solution was discarded, and agarose gel preheated at 56° C. was added to 2×MEM by the same volume and mixed well, and then 2 mL of mixed solution was added per well, and incubated at room temperature for 30 min (gel). • 5. […]

The subject of a further data set is A549. Description: In vitro inhibition test for cancer cell proliferation (MTT), A549. Conditions: 24 h or 48 h after addition, unit inferred. Type of data set: cell-based.
Another data set relates to L929. Description: In vitro cell proliferation inhibition test (MTT), L929. Type of data set: cell-based. The following applies: 24 h or 48 h after addition, unit inferred.
A further data set concerns HeLa. Briefly: In vitro inhibition test for cancer cell proliferation (MTT), HeLa. The data set is classed as cell-based. Conditions: 24 h or 48 h after addition, unit inferred.
The test system of a further data set is MCF-7. Briefly: In vitro inhibition test for cancer cell proliferation (MTT), MCF-7. The data set is classed as cell-based. The following applies: 24 h or 48 h after addition, unit inferred.
The test system of another data set is melanoma cell A375. Description: In vitro proliferation inhibition, A375. The data set is classed as cell-based. Conditions: unit inferred. The method, then: (§1) Test method: pancreatic cancer cells CFPAC-1 were cultured in a Dalbeco-improved Eagle medium with the addition of 10% FBS and 5% double-antibody. CFPAC-1 cancer cells were inoculated into a 96-well plate for incubation for 24 h; in the following day, test compounds having various concentrations of (100, 20, 10, 1, 0.1, 0.01, and 0.001 μM) and positive control agents were added per well; corresponding volume of fresh medium was added to blank control. After addition for 24 h or 48 h, cell proliferation was evaluated by chromogenic reaction of MTT formazan.
(§2) In addition, compounds (I), (II), (III), and (IV) of the present invention have good inhibition activity against the proliferation of other cancer cells, including non-small cell lung cancer cell (H460, H1299), liver tumor cell (HepG2), rectal cancer cell (HT29), leukemia cell (CCRF-CEM), prostate cancer cell (PC-3), ovarian carcinoma cell (SKOV-3), melanoma cell (A375), myeloma cell (RPMI-8226), esophageal carcinoma cell (TE-1), pancreatic cancer cell (CFPAC-1, PANC-1, SW1990, ASPC-1, and BXPC-3), bladder cancer cell (5637), and gastric cancer cell (KATO-III).

In a further data set the test system is leukemia cell CCRF-CEM. Briefly: In vitro proliferation inhibition, CCRF-CEM. The data set is classed as cell-based. The following applies: unit inferred. The method, then:
as §1, §2

For data set [1], the system named is gastric cancer cell KATO-III. Description: In vitro proliferation inhibition, KATO-III. Type of data set: cell-based. The following applies: unit inferred. The method, then: as §1, §2
Data set [2] relates to pancreatic cancer cells CFPAC-1. Description: In vitro proliferation inhibition, CFPAC-1. The data set is classed as cell-based. The following applies: unit inferred. The method, then: as §1, §2
For a further data set, the system named is bladder cancer cell 5637. Description: In vitro proliferation inhibition, 5637. The following applies: unit inferred. Type of data set: cell-based. The method, then: as §1, §2
The test system of data set [3] is CFPAC-1 pancreatic cancer cells. Description: In vivo inhibition test of cancer cell proliferation, CFPAC-1 transplant. Also noted: species or system Balb/c naked mouse. The following applies: 7 mg/kg, once every other three days, 7 times; gross tumor volume. The method, then: Test method: 3×10^7 CFPAC-1 pancreatic cancer cells were transplanted to subcutaneous tissues of armpit of a Balb/c naked mouse; administration was conducted when the tumor grew to 50-100 mm^3, 100-200 mm^3, and greater than 200 mm^3; the mouse was administered once every other three days, 7 times in total, and 7 mg/kg each time. Normal saline was injected in the control group. Tumor length and diameter were measured by calipers and weight of the moue was weighed until the next day of the final administration. Gross tumor volume was calculated by the following equation:
gross tumor volume (mm^3)=½×[short diameter (mm)]^2×long diameter (mm)

For data set [4], the system named is pancreatic cancer cell BXPC-3. Description: In vitro proliferation inhibition, BXPC-3. The data set is classed as cell-based. The following applies: unit inferred. The method, then: as §1, §2
The subject of data set [5] is pancreatic cancer cell SW1990. Briefly: In vitro proliferation inhibition, SW1990. Type of data set: cell-based. The following applies: unit inferred. The method, then:
as §1, §2

A further data set has as its system liver tumor cell HepG2. Description: In vitro proliferation inhibition, HepG2. Type of data set: cell-based. Conditions: unit inferred. The method, then: as §1, §2
Data set [6] relates to prostate cancer cell PC-3. Description: In vitro proliferation inhibition, PC-3. The following applies: unit inferred. The data set is classed as cell-based. The method, then: as §1, §2
Data set [7] relates to non-small cell lung cancer cell H460. Description: In vitro proliferation inhibition, H460. The data set is classed as cell-based. Conditions: unit inferred. The method, then: as §1, §2
A further data set relates to myeloma cell RPMI-8226. Briefly: In vitro proliferation inhibition, RPMI-8226. The data set is classed as cell-based. Conditions: unit inferred. The method, then: as §1, §2
Data set [8] concerns pancreatic cancer cell PANC-1. Briefly: In vitro proliferation inhibition, PANC-1. Type of data set: cell-based. Conditions: unit inferred. The method, then: as §1, §2
A further data set has as its system rectal cancer cell HT29. Description: In vitro proliferation inhibition, HT29. The data set is classed as cell-based. Conditions: unit inferred. The method, then: as §1, §2
In data set [9] the test system is non-small cell lung cancer cell H1299. Description: In vitro proliferation inhibition, H1299. Type of data set: cell-based. Conditions: unit inferred. The method, then: as §1, §2
For data set [10], the system named is pancreatic cancer cell ASPC-1. Description: In vitro proliferation inhibition, ASPC-1. Type of data set: cell-based. The following applies: unit inferred. The method, then: as §1, §2
The subject of data set [11] is esophageal carcinoma cell TE-1. Briefly: In vitro proliferation inhibition, TE-1. The data set is classed as cell-based. Conditions: unit inferred. The method, then:
as §1, §2

Data set [12] relates to ovarian carcinoma cell SKOV-3. Description: In vitro proliferation inhibition, SKOV-3. Type of data set: cell-based. Conditions: unit inferred. The method, then: as §1, §2
Data set [13] in a line: Compound toxicity test, body weight changes. The data set is classed as in vivo, balb/c mice. Conditions: tail intravenous injection, 5 mg/kg every day for 7 consecutive days. The method, then:
Test method: the compounds 121, 123, 124, 125, 128, 132, 137, 138, 139, 140, 143, 144, 145, 146, and 147 in the examples of the present invention were administered every day via tail intravenous injection at a dose of 5 mg/kg for 7 consecutive days, and then body weight changes of the balb/c mice were monitored.

For `CC(C)ON=C1c2ccccc2C(=O)c2c1[n+](C)cn2C.[I-]` [Compound 127, (E) and (Z)-4-(isopropoxyimino)-1,3-dimethyl-9-oxo-4,9-dihydro-1H-naphthol[2,3-d]imidazole-3-iodide], the “non-CPE blank plaques observed” value with Adenovirus is recorded as 5 days later, non-CPE blank plaque also appeared in the low concentration group. The IC50 (as a rule, the concentration needed to halve the response being measured) in the data set on A549 worked out at 90 nM; in the data set on L929 it was 29600 nM; in the data set with HeLa, 25100 nM; in the data set with MCF-7, 7900 nM.

`Cn1c[n+](C)c2c1C(=O)c1ccccc1C2=NOCc1ccccc1.[I-]` [Compound 125, (E) and (Z)-4-((benzyloxy)imino)-1,3-dimethyl-9-oxo-4,9-dihydro-1H-naphthol[2,3-d]imidazole-3-iodide]: the IC50 is 2210 nM in the data set with melanoma cell A375; 90 nM in the data set with leukemia cell CCRF-CEM; 9 nM in data set [1]; 6 nM in [2]; 40 nM in the data set on bladder cancer cell 5637; 3 nM in data set [4]. Also, the IC50 in data set [5] stood at 9 nM; in the data set with liver tumor cell HepG2, 9 nM; in data set [6], 26500 nM; in the data set on A549, 5 nM; in data set [7], 160 nM; in the data set with L929 it was 45300 nM. Moreover, the IC50 with myeloma cell RPMI-8226 is 89000 nM; with HeLa it was 5300 nM; with MCF-7, 4500 nM; in data set [8], 970 nM; in the data set on rectal cancer cell HT29 it was 5400 nM; in data set [9], 260 nM. The IC50 in data set [10] amounted to 5 nM; in [11], 60 nM; in [12] it was 90 nM. Also, the “effect on viral replication” value in the data set on Adenovirus is listed as “inhibiting effect on viral replication”. Also, the “proliferation inhibition activity / inhibition ratio” value in [3] is listed as 100%.

Regarding `Nc1ccn([C@@H]2O[C@H](CO)[C@@H](O)C2(F)F)c(=O)n1` [gemcitabine], in [13], the “condition and body weight changes of the mice” value is “obviously reduced weight and are dispirited”.

On to `Nc1ccn(C[C@@H](CO)OCP(=O)(O)O)c(=O)n1` [Cidofovir, reference compound], for which the “non-CPE blank plaques observed” value with Adenovirus is 4 days later, lots of blank plaques formed by non-CPE could be observed.
